This note sets out measurements from US20260217732A1, “WRN INHIBITOR” (SUZHOU PUHE BIOPHARMA CO., LTD., priority 2022, published 2026).

Where only a bound is given, the exact number is not on record here.

The target of one test is T1, WRN enzyme (Homo sapiens, UniProt Q14191).
T1 construct: 10 μL (2×) of WRN enzyme solution was added
Briefly: WRN helicase hydrolysis (unwinding) of double-stranded DNA, fluorescence assay. The class given is biochemical. Conditions: 30 min pre-incubation, 60 min reaction. The method, then: • The molecules of the present disclosure were tested for their activities on the WRN helicase hydrolysis of double-stranded DNA (Table 1).
A working solution to be tested and a buffer were prepared. The compound to be tested was dissolved in DMSO and subjected to 4× dilution (with 10 μM final concentration as the starting concentration). 0.2 μL of the solution of the compound to be tested was added to the 384-well plate and 10 μL (2×) of WRN enzyme solution was added. The solution was incubated in the dark for 30 minutes. Then, 10 μL of a substrate detection solution containing double-stranded DNA was added to initiate the reaction (the DNA has a length of 19 bp, and labeled with TAMRA and BHQ2 at 3′ and 5′-ends, respectively). The solution was incubated at room temperature for 60 minutes. The inhibitory activities (IC50) against WRN enzyme were calculated based on the change of Ex530/Em590 in the blank group (DMSO) and the compound group.

For test [1], the system named is SW48 colorectal cancer cells. Briefly: 2D antiproliferation on MSI-H SW48 cells, CTG, 5 days. It counts as cell-based. The conditions noted are these: Homo sapiens, 120 h; SW48 MSI-H, 5 days. As to the method: The molecules of the present disclosure were tested for their anti-proliferative activity on MSI-H tumor cells.
SW48 colorectal cancer cells with MSI were cultured in a RMI1640 medium containing 10% FBS and 1% penicillin-streptomycin, and the mixture was cultured in a 37° C., 5% CO2 incubator. 40 μL of cell suspension was added to each well of a 384-well microplate. […] of compounds with different concentrations were added to each well using Echo, and the mixtures were cultured in a 37° C., 5% CO2 incubator for 5 days. 40 μL of CTG solution (Promega, Cat No. G7573) was added to each well and incubated in a 37° C., 5% CO2 incubator in the dark for 30 minutes. The luminescence value was read using an Envision multi-function microplate reader (Perkin Elmer, catalog number Envision 2104). The optical signal is proportional to the amount of ATP in the system, while the ATP content directly characterizes the number of viable cells in the system.

The subject of test [2] is HT-29 colorectal cancer cells. Briefly: 2D antiproliferation on MSS HT-29 cells, CTG, 5 days. The class given is cell-based. Conditions: Homo sapiens, 120 h, HT-29 MSS. As to the method: The molecules of the invention were tested for their anti-proliferative activities on MSS tumor cells.
HT-29 colorectal cancer cells with MSS were cultured in a McCoy's 5A medium containing 10% FBS and 1% penicillin-streptomycin in a 37° C., 5% CO2 constant temperature incubator. 40 μL of cell suspension was added to each well of a 384-well microplate. […] of compounds with different concentrations were added to each well using Echo. The mixtures were cultured in a 37° C., 5% CO2 constant temperature incubator for 5 days. 40 μL of CTG solution (Promega, Cat No. G7573) was added to each well, and the mixture was incubated in a 37° C., 5% CO2 constant temperature incubator for 30 minutes in the dark. The luminescence value was read using an Envision multi-function microplate reader (Perkin Elmer, catalog number Envision 2104). The optical signal is proportional to the amount of ATP in the system, while the ATP content directly characterizes the number of viable cells in the system.

T1 sequence (Q14191 whole entry): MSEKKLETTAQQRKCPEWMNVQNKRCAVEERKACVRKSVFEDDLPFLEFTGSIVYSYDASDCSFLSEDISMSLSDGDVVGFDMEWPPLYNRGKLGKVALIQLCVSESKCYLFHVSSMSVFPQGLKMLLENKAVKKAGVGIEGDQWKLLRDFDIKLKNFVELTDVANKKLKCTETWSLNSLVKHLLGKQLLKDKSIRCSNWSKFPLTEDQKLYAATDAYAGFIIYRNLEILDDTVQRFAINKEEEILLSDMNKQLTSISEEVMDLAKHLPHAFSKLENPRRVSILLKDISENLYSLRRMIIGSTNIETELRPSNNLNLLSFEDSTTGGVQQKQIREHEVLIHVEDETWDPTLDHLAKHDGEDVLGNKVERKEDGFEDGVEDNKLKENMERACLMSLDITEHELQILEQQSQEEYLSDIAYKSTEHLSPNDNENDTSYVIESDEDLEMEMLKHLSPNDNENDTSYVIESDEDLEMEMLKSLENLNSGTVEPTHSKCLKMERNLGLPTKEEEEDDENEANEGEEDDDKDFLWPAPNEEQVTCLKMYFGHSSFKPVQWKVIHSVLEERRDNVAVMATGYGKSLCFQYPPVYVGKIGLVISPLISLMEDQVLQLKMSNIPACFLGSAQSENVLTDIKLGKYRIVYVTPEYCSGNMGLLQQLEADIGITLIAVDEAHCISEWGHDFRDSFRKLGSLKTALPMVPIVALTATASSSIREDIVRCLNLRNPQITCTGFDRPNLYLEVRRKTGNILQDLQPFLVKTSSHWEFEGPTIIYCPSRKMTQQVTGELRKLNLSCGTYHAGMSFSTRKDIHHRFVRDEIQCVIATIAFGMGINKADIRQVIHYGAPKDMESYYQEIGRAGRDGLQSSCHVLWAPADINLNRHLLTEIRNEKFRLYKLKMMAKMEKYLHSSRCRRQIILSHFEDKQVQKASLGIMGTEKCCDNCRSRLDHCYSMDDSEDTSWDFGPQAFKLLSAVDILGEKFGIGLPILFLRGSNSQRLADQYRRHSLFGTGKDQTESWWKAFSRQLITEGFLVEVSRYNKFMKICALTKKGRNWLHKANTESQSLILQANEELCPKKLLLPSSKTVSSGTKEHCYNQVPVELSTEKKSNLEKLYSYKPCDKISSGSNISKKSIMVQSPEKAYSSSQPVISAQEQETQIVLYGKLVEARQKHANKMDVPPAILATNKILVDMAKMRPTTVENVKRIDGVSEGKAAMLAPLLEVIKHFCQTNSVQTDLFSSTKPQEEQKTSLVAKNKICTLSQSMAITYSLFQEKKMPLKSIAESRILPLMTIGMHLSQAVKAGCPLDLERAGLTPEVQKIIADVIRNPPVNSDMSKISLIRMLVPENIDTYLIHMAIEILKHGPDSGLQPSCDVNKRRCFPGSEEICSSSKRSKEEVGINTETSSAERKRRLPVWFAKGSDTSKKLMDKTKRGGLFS

Consider `CCc1c(N2CC[C@@H](NC(=O)c3ncnc(C)c3O)C2)c(=O)n2nc(C3=CCOCC3)nc2n1CC(=O)Nc1ccc(C(F)(F)F)cc1Cl` [P2], for which the IC50 at WRN enzyme is 2.3 nM; in test [1] it was 1110 nM.
For the compound `CCc1c(N2CCN(C(=O)c3ncccc3O)CC2)c(=O)n2nc(-c3cncs3)nc2n1CC(=O)Nc1ccc(C(F)(F)F)cc1Cl` [P5], the IC50 at WRN enzyme was 1.6 nM; in test [2] it was above 10000 nM.
As to `CCc1c(N2CCN(C(=O)c3ncccc3O)CC2)c(=O)n2nc(-c3sccc3N)nc2n1CC(=O)Nc1ccc(C(F)(F)F)cc1Cl` [P8], the IC50 on WRN enzyme was determined as 3.7 nM; in test [1] it was 566 nM.
In the case of `CCc1c(N2CCN(C(=O)c3ncccc3O)CC2)c(=O)n2nc(-c3ccc(COC)s3)nc2n1CC(=O)Nc1ccc(C(F)(F)F)cc1Cl` [P10], the IC50 against WRN enzyme was 2.1 nM; in test [1], 125 nM; in test [2], above 10000 nM.
The like results for `CCc1c(N2CCN(C(=O)c3ncccc3O)CC2)c(=O)n2nc(-c3cnc(CO)s3)nc2n1CC(=O)Nc1ccc(C(F)(F)F)cc1Cl` [P11] were, in that order, 1.7 nM, 127 nM and above 10000 nM.
Take `CCc1c(N2CCN(C(=O)c3ncccc3O)CC2)c(=O)n2nc(-c3cnc(C(C)=O)s3)nc2n1CC(=O)Nc1ccc(C(F)(F)F)cc1Cl` [P12]: the IC50 at WRN enzyme was 9.4 nM; in test [1], 450 nM; in test [2], above 10000 nM.
For the compound `CCc1c(N2CCN(C(=O)c3ncccc3O)CC2)c(=O)n2nc(-c3cc4cn[nH]c4s3)nc2n1CC(=O)Nc1ccc(C(F)(F)F)cc1Cl` [P13], the IC50 against WRN enzyme turned out to be 2.2 nM; in test [1] it was 72 nM; in test [2], 9110 nM.
For `CCc1c(N2CCN(C(=O)c3ncccc3O)CC2)c(=O)n2nc(-c3[nH]nc4sccc34)nc2n1CC(=O)Nc1ccc(C(F)(F)F)cc1Cl` [P14] the same measures were 4.4 nM, 97 nM and above 10000 nM.
The like results for `CCc1c(N2CCN(C(=O)c3ncccc3O)CC2)c(=O)n2nc(-c3ccc(C(C)=O)s3)nc2n1CC(=O)Nc1ccc(C(F)(F)F)cc1Cl` [P15] were, in that order, 1.6 nM, 381 nM and above 10000 nM.
For `CCc1c(N2CCN(C(=O)c3ncccc3O)CC2)c(=O)n2nc(-c3cc4cnn(C)c4s3)nc2n1CC(=O)Nc1ccc(C(F)(F)F)cc1Cl` [P16] the same measures were 2.1 nM, 120 nM and above 10000 nM.
On to `CCc1c(N2CCN(C(=O)c3ncccc3O)CC2)c(=O)n2nc(-c3cc4ccncc4s3)nc2n1CC(=O)Nc1ccc(C(F)(F)F)cc1Cl` [P17], for which the IC50 is 2.3 nM on WRN enzyme, 360 nM in test [1] and above 10000 nM in test [2].
With `CCc1c(N2CCN(C(=O)c3ncccc3O)CC2)c(=O)n2nc(-c3cc4cnccc4s3)nc2n1CC(=O)Nc1ccc(C(F)(F)F)cc1Cl` [P18], the IC50 at WRN enzyme came out at 1.8 nM; in test [1], 499 nM; in test [2], 4870 nM.
For `CCc1c(N2CCN(C(=O)c3ncccc3O)CC2)c(=O)n2nc(-c3cc4c(s3)COC4)nc2n1CC(=O)Nc1ccc(C(F)(F)F)cc1Cl` [P20] the same measures were 1.6 nM, 126 nM and above 10000 nM.
For the compound `CCc1c(N2CCN(C(=O)c3ncccc3O)CC2)c(=O)n2nc(-c3ccc4c(c3)OCO4)nc2n1CC(=O)Nc1ccc(C(F)(F)F)cc1Cl` [P21], the IC50 is 3.3 nM at WRN enzyme, 480 nM in test [1] and above 10000 nM in test [2].
The like results for `CCc1c(N2CCN(C(=O)c3ncnc(C)c3O)CC2)c(=O)n2nc(-c3cc4c(s3)COC4)nc2n1CC(=O)Nc1ccc(Br)cc1C` [P25] were, in that order, 1.7 nM, 39 nM and above 10000 nM.
For `CCc1c(N2CCN(C(=O)c3ncnc(C)c3O)CC2)c(=O)n2nc(-c3cc4c(s3)COC4)nc2n1CC(=O)Nc1ccc(C(F)(F)F)cc1F` [P32] the same measures were 1.5 nM, 126 nM and above 10000 nM.
For `CCc1c(N2CCN(C(=O)c3ncccc3O)CC2)c(=O)n2nc(-c3cnc(COC)s3)nc2n1CC(=O)Nc1ccc(C(F)(F)F)cc1Cl` [P33] the same measures were 1.8 nM, 139 nM and above 10000 nM.
`CCc1c(N2CCN(C(=O)c3ncccc3O)CC2)c(=O)n2nc(-c3c[nH]c4ncncc34)nc2n1CC(=O)Nc1ccc(C(F)(F)F)cc1Cl` [P41]: the figures for the IC50 in test [1] and in test [2] were 2080 nM and 5590 nM, respectively.
With `CCc1c(N2CCN(C(=O)c3ncnc(C)c3O)CC2)c(=O)n2nc(-c3cc4cncnc4s3)nc2n1CC(=O)Nc1ccc(C(F)(F)F)cc1Cl` [P42], the IC50 in test [1] is 620 nM; in test [2] it was above 10000 nM.
`CCc1c(N2CCN(C(=O)c3ncnc(C)c3O)CC2)c(=O)n2nc(-c3cc4cncnc4[nH]3)nc2n1CC(=O)Nc1ccc(C(F)(F)F)cc1Cl` [P44]: the IC50 in test [1] and in test [2] was above 10000 nM in each case.
As for `CCc1c(N2CCN(C(=O)c3ncnc(C)c3O)CC2)c(=O)n2nc(-c3cc4n(c3)CCOC4)nc2n1CC(=O)Nc1ccc(C(F)(F)F)cc1Cl` [P45], the IC50 is 54 nM in test [1] and above 10000 nM in test [2].
On to `CCc1c(N2CCN(C(=O)c3ncnc(C)c3O)CC2)c(=O)n2nc(-c3ccc4nccn4c3)nc2n1CC(=O)Nc1ccc(C(F)(F)F)cc1F` [P46], for which the IC50 in test [1] is 452 nM; in test [2], above 10000 nM.
For `CCc1c(N2CCN(C(=O)c3ncnc(C)c3O)CC2)c(=O)n2nc(-c3ccc4nccn4c3)nc2n1CC(=O)Nc1ccc(C(F)(F)F)cc1C` [P47], the 50% inhibitory concentration (IC50) in test [1] is 480 nM; in test [2], above 10000 nM.
For the compound `CCc1c(N2CCN(C(=O)c3ncnc(C)c3O)CC2)c(=O)n2nc(-c3cc4cn[nH]c4s3)nc2n1CC(=O)Nc1ccc(C(F)(F)F)cc1C` [P50], the IC50 is 162 nM in test [1] and above 10000 nM in test [2].
For the compound `CCc1c(N2CCN(C(=O)c3ncnc(C)c3O)[C@H](C)C2)c(=O)n2nc(-c3cc4c(s3)COC4)nc2n1CC(=O)Nc1ccc(C(F)(F)F)cc1C` [P53], the IC50 in test [1] was 55 nM; in test [2], above 10000 nM.
As for `CCc1c(N2CCN(C(=O)c3ncccc3O)CC2)c(=O)n2nc(-c3cc4c(s3)COC4)nc2n1CC(=O)Nc1ccc(C(F)(F)F)c2ccsc12` [P58], the IC50 against WRN enzyme is 2.9 nM; in test [1], 123 nM; in test [2], above 10000 nM.

The term IC50 denotes the concentration that inhibits the measured activity by half. The low end stands for greater potency, the high end for weaker potency.
